Measured values from article PMC9889419 (Pharmacological Reports, 2022).
Where a name gives a salt, the structure may show the parent alone.

Legend:
5-HT1B = biological target: T1, 5-HT1B (Rattus norvegicus, UniProt P28564); test: Radioligand binding; details: 100 μM
T1 construct: purchased Eurofins CEREP
Procedure: (§1) Radioligand binding. Radioligand binding assays were performed at Eurofins CEREP (France). The results are expressed as a percent of control specific binding (measured specific binding*100/control specific binding) and as a percent inhibition of control specific binding (100-(measured specific binding*100)/control specific binding) obtained in the presence of the test compounds. The IC50 values (concentration causing a half-maximal inhibition of control specific binding) and Hill coefficients (nH) were determined by non-linear regression analysis of the competition curves generated with mean replicate values using Hill equation curve fitting (Y = D + [A-D]/[1 + (C/C50)^nH], where Y = specific binding, A = left asymptote of the curve, D = right asymptote of the curve, C = compound concentration, C50 = IC50, and nH = slope factor). This analysis was performed using software developed at Cerep (Hill software) and validated by comparison with data generated by the commercial software SigmaPlot® 4.0 for Windows® (© 1997 by SPSS Inc.). The inhibition constants (Ki) were calculated using the Cheng Prusoff equation (Ki = IC50/[1 + L/KD], where L = concentration of radioligand in the assay, and KD = affinity of the radioligand for the receptor). A scatchard plot is used to determine the Kd.

5-HT3 = biological target: T2, 5-HT3 (Homo sapiens, UniProt P46098); test: Radioligand binding; details: 100 μM
T2 construct: purchased Eurofins CEREP
T2 sequence (P46098 24-478): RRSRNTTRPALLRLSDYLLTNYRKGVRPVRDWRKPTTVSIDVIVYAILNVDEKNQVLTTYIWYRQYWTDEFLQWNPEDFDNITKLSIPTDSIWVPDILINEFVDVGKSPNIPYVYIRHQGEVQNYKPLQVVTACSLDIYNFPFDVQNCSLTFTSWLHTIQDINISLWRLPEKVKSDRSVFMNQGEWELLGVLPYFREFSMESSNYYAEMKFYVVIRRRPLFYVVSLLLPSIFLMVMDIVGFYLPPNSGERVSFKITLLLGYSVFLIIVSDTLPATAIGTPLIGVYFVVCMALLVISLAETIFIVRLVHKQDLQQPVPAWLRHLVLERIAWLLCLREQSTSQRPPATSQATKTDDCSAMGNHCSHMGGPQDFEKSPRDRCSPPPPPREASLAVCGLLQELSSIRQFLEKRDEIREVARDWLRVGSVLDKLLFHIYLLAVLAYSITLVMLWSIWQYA
Procedure: as §1

5-HT6 = biological target: T3, 5-HT6 (Homo sapiens, UniProt P50406); test: Radioligand binding; details: 100 μM
T3 construct: purchased Eurofins CEREP
Procedure: as §1

A2A = biological target: T4, A2A (Homo sapiens, UniProt P29274); test: Radioligand binding; details: 100 μM
T4 construct: purchased Eurofins CEREP
Procedure: as §1

CCR1 = biological target: T5, CCR1 (Homo sapiens, UniProt P32246); test: Radioligand binding; details: 100 μM
T5 construct: purchased Eurofins CEREP
Procedure: as §1

CGRP = biological target: T6, CGRP (Homo sapiens, UniProt O60894+Q16602); test: Radioligand binding; details: 100 μM
T6 construct: purchased Eurofins CEREP
T6 sequence (Q16602 23-461): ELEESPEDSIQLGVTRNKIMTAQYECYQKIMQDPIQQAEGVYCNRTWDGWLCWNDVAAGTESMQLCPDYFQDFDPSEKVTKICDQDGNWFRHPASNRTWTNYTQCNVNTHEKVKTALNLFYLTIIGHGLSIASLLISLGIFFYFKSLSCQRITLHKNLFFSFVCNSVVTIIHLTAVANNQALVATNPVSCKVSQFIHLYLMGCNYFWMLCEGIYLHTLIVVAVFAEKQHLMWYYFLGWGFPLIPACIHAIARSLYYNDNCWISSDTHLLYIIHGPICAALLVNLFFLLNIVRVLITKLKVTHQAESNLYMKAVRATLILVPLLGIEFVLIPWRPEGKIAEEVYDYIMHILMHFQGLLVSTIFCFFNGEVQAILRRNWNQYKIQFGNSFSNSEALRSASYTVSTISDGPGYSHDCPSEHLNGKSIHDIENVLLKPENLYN
T6 sequence (O60894 27-148): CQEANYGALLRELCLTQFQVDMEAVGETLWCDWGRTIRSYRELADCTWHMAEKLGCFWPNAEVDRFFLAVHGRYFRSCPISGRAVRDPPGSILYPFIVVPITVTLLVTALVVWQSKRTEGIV
Procedure: as §1

CXCR2 (IL-8B) = biological target: T7, CXCR2 (IL-8B) (Homo sapiens, UniProt P25025); test: Radioligand binding; details: 100 μM
T7 construct: purchased Eurofins CEREP
T7 sequence (P25025 whole entry): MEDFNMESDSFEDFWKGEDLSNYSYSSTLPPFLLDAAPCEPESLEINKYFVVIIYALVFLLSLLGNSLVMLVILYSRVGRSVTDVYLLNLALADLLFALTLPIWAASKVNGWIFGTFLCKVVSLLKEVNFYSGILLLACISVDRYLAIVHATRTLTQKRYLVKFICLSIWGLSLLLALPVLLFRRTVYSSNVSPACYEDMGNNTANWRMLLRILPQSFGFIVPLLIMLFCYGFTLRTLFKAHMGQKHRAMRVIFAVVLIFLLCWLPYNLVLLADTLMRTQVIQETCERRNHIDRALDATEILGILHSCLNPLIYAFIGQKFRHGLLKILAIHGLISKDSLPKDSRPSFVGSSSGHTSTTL
Procedure: as §1

D1 = biological target: T8, D1 (Homo sapiens, UniProt P21728); test: Radioligand binding; details: 100 μM
T8 construct: purchased Eurofins CEREP
Procedure: as §1

D5 = biological target: T9, D5 (Homo sapiens, UniProt P21918); test: Radioligand binding; details: 100 μM
T9 construct: purchased Eurofins CEREP
Procedure: as §1

ETA = biological target: T10, ETA (Homo sapiens, UniProt P25101); test: Radioligand binding; details: 100 μM
T10 construct: purchased Eurofins CEREP
Procedure: as §1

GAL1 = biological target: T11, GAL1 (Homo sapiens, UniProt P47211); test: Radioligand binding; details: 100 μM
T11 construct: purchased Eurofins CEREP
T11 sequence (P47211 whole entry): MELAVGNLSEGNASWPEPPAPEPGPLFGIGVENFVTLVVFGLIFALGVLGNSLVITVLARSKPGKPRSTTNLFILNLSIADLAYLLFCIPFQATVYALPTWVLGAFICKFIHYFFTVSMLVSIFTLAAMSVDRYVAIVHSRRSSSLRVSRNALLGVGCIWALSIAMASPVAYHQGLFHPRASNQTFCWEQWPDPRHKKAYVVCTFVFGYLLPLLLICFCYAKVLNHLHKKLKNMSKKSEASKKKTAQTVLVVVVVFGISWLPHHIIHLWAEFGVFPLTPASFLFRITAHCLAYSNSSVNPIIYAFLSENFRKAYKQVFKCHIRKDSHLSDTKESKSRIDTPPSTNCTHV
Procedure: as §1

GR = biological target: T12, GR (Homo sapiens, UniProt P04150); test: Radioligand binding; details: 100 μM
T12 construct: purchased Eurofins CEREP
T12 sequence (P04150 whole entry): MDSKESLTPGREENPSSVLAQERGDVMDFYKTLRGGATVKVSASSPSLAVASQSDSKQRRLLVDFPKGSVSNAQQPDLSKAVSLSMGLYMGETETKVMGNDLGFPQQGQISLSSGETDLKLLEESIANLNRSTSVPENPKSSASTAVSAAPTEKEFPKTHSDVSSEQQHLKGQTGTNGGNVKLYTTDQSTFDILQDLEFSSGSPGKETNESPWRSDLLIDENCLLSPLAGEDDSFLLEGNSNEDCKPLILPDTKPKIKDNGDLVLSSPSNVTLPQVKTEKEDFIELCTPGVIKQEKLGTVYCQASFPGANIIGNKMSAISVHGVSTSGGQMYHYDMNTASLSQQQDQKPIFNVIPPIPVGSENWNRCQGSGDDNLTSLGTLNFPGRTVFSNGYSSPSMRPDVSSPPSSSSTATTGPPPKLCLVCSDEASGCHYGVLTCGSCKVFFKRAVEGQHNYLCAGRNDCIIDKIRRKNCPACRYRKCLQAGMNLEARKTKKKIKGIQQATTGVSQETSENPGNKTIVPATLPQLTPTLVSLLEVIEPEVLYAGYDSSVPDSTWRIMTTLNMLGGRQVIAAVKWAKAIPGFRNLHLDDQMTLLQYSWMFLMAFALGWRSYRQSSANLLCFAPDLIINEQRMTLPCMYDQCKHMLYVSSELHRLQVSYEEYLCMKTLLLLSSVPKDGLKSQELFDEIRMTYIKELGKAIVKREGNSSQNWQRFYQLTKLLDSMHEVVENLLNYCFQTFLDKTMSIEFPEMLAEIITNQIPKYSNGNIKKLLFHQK
Procedure: as §1

H1 = biological target: T13, H1 (Homo sapiens, UniProt P35367); test: Radioligand binding; details: 100 μM
T13 construct: purchased Eurofins CEREP
Procedure: as §1

M2 = biological target: T14, M2 (Homo sapiens, UniProt P08172); test: Radioligand binding; details: 100 μM
T14 construct: purchased Eurofins CEREP
T14 sequence (P08172 whole entry): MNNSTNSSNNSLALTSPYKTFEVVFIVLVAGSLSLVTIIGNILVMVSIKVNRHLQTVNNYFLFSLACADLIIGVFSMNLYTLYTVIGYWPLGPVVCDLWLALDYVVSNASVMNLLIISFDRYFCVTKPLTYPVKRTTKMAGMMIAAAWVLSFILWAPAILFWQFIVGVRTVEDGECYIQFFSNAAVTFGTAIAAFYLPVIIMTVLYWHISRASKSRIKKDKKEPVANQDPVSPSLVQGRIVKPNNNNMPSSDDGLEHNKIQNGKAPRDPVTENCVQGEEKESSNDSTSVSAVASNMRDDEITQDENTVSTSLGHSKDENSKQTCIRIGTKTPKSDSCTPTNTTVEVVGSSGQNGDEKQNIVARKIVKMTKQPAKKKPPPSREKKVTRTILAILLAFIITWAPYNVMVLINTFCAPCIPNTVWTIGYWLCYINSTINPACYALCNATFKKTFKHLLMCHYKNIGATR
Procedure: as §1

M3 = biological target: T15, M3 (Homo sapiens, UniProt P20309); test: Radioligand binding; details: 100 μM
T15 construct: purchased Eurofins CEREP
T15 sequence (P20309 whole entry): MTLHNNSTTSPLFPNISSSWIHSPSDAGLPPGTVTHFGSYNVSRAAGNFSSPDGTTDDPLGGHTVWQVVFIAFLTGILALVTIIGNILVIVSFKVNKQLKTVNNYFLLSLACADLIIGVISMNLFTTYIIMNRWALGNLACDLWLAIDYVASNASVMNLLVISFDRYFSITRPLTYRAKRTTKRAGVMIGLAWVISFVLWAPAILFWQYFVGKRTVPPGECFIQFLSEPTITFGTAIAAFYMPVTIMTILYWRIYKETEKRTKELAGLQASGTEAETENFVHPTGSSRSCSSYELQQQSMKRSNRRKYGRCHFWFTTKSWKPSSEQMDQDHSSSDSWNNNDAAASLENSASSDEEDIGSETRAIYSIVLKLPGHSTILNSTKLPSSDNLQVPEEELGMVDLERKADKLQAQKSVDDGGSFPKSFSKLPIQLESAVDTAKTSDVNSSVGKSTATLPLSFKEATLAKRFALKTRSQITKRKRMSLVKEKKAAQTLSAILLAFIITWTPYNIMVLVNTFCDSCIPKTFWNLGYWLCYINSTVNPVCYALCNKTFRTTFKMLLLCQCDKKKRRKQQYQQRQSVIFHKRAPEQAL
Procedure: as §1

NTS1 (NT1) = biological target: T16, NTS1 (NT1) (Homo sapiens, UniProt P30989); test: Radioligand binding; details: 100 μM
T16 construct: purchased Eurofins CEREP
T16 sequence (P30989 whole entry): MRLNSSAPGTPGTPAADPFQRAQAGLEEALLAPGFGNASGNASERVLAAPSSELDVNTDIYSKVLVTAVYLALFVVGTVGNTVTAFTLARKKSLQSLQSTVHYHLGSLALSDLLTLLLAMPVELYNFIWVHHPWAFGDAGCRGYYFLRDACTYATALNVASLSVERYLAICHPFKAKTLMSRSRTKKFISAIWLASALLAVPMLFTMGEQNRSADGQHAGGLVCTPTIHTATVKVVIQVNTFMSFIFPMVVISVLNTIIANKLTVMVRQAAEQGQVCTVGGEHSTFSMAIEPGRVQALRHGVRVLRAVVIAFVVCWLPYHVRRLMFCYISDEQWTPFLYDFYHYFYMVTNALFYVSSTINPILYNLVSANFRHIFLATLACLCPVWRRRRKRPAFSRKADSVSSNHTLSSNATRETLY
Procedure: as §1

PDGF = test: Radioligand binding; details: 100 μM
Procedure: as §1

PPARγ = biological target: T17, PPARγ (Homo sapiens, UniProt P37231); test: Radioligand binding; details: 100 μM
T17 construct: purchased Eurofins CEREP
Procedure: as §1

VPAC1 (VIP1) = biological target: T18, VPAC1 (VIP1) (Homo sapiens, UniProt P32241); test: Radioligand binding; details: 100 μM
T18 construct: purchased Eurofins CEREP
Procedure: as §1

Y1 = biological target: T19, Y1 (Homo sapiens, UniProt P25929); test: Radioligand binding; details: 100 μM
T19 construct: purchased Eurofins CEREP
Procedure: as §1

sst (non-selective) = test: Radioligand binding; details: 100 μM
Procedure: as §1

β1 = biological target: T20, β1 (Homo sapiens, UniProt P08588); test: Radioligand binding; details: 100 μM
T20 construct: purchased Eurofins CEREP
T20 sequence (P08588 whole entry): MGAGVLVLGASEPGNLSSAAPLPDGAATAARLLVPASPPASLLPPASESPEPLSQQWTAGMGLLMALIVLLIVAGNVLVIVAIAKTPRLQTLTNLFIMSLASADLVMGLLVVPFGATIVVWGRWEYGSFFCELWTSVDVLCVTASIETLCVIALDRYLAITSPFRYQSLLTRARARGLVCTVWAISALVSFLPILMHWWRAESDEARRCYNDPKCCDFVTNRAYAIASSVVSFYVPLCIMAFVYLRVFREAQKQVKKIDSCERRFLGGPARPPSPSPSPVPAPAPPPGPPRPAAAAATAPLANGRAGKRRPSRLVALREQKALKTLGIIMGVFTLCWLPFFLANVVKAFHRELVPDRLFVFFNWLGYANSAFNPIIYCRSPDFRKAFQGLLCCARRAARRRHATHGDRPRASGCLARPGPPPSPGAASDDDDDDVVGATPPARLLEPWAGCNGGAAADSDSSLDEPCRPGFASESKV
Procedure: as §1

δ (DOP) = biological target: T21, δ (DOP) (Homo sapiens, UniProt P41143); test: Radioligand binding; details: 100 μM
T21 construct: purchased Eurofins CEREP
T21 sequence (P41143 whole entry): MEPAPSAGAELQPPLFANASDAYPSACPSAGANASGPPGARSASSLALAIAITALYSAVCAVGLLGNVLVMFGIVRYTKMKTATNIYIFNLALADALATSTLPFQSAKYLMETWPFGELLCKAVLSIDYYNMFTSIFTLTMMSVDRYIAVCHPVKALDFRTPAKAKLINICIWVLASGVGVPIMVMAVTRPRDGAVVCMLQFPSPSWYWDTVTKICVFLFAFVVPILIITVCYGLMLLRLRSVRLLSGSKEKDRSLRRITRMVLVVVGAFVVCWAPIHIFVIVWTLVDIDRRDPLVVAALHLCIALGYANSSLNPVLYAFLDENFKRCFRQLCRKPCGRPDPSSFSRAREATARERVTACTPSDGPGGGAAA
Procedure: as §1

Sigma (non-selective) = test: Radioligand binding; parameters: species or system rat
Procedure: as §1

mice [1] = test: 6 Hz test; format: in vivo; details: mice; for ED50: Mus musculus
Procedure: The 6 Hz model test was carried out according to the protocol originally described by Brown et al. [54] and more recently by Barton et al. [55] and Kamiński et al. [47] and is a model of pharmacoresistant epilepsy [56].

rats [2] = format: in vivo; details: ip
mice [3] = test: Rotarod test (neurotoxicity); format: in vivo; details: ip, […];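 note: in vivo neurotoxicity screen run within the NIH Epilepsy Therapy Screening Program (ETSP, formerly Anticonvulsant Screening Program)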
Procedure: (§2) The assays were carried out within the Epilepsy Therapy Screening Program (ETSP, previously known as the Anticonvulsant Screening Program, ASP), Epilepsy Branch, National Institute of Neurological and Communicative Disorders and Stroke, National Institutes of Health in Rockville, MD, USA [23].
(§3) The obtained compounds were screened for antiseizure activity and neurotoxicity in vivo within the Epilepsy Therapy Screening Program (ETSP, previously known as the Anticonvulsant Screening Program, ASP), Epilepsy Branch, National Institute of Neurological and Communicative Disorders and Stroke, National Institutes of Health in Rockville, MD, USA [23].

rats [4] = test: SCMET (subcutaneous Metrazol) test; format: in vivo; details: for SCMET ED50: rats
[5] = system: organotypic hippocampal slice cultures; test: Neuroprotection primary screen, excitotoxin kainic acid; format: cell-based; details: kainic acid 20 µM, 10 and 100 µM compound
Procedure: Compound 2 : ADD t{umber, b890s0 Batch: lB- Date Compteted. Ect\,t""201 0 […]
Excilotoxin: llGinic ncia Insult Duration: l+ Hours Solvent: […]
Ai lxn zopr.,r aZ lxa zopr,r Ae lre zoprta
Bz lr<n zopn er ]ra zopr',t l:+aot a r ooprt/|*aa9o8o l oopM lgaeota t oot,tr,t*gB9o8o t oopM […]
The "Primary screen Experiment" is a qualitative assessment of the ability of a compound to prevent excitotoxic cell dearh. organotypic hippocampal slice clltures are treated with N-methyl-D-aipartate lNuoa; o; kainic acid (KA) to induce neuronal cell death. Propidium iodide (Pl), a membrane-impermeant compound, is included in all welts of the culture plate.
Dying cells have compromised cell membranes, thus Pl may diffuse into the cell, intercalate with DNA and ftuoresce. Thus, the intensity of the Pl fluorescence is proportional to the amount of cell death in the individual slices. Hippocampal slice cultures are treated with the excitotoxin alone, or where indicated above, with the excitotoxin and either one eltu/o investigational compounds at the concentrations indicated. lf neuroprotection occurs as a consequence of the added […]
been treated with the excitotoxin alone.
(1 picture or pasted object on this page, not shown here)

[6] = Rotarod test (neurotoxicity); format: in vivo, mice; details: mouse, in vivo; mice, ip, 0.25 h;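 note: in vivo neurotoxicity screen run within the NIH Epilepsy Therapy Screening Program (ETSP, formerly Anticonvulsant Screening Program)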
Procedure: as §2, §3

## CCC(CO)NCCOc1c(C)cccc1Cl (stereo not drawn) [Compound 4, R,S-2-((2-(2-chloro-6-methylphenoxy)ethyl)amino)butan-1-ol]
5-HT1B
  % of control specific binding: 79.7%
5-HT3
  % of control specific binding: 76.2%
5-HT6
  % of control specific binding: 101.6%
A2A
  % of control specific binding: 71.7%
CCR1
  % of control specific binding: 100.7%
CGRP
  % of control specific binding: 119.0%
CXCR2 (IL-8B)
  % of control specific binding: 112.2%
D1
  % of control specific binding: 58.6%
D5
  % of control specific binding: 54.4%
ETA
  % of control specific binding: 130.9%
GAL1
  % of control specific binding: 123.5%
GR
  % of control specific binding: 111.7%
H1
  % of control specific binding: 58.9%
M2
  % of control specific binding: 58.4%
M3
  % of control specific binding: 63.5%
NTS1 (NT1)
  % of control specific binding: 128.1%
PDGF
  % of control specific binding: 127.9%
PPARγ
  % of control specific binding: 92.3%
VPAC1 (VIP1)
  % of control specific binding: 117.9%
Y1
  % of control specific binding: 122.3%
Sst (non-selective)
  % of control specific binding: 75.5%
β1
  % of control specific binding: 64.4%
δ (DOP)
  % of control specific binding: 97.0%
Sigma (non-selective); 100 μM
  % of control specific binding: -2.7%
Mice [1]; 32 mA, ip
  6 Hz ED50: 32.4 (28.4–36.0) mg/kg
  6 Hz TPE: 0.25 h
Mice [1]; 44 mA, ip
  6 Hz ED50: 29.75 (28.3–31.5) mg/kg
  6 Hz TPE: 0.25 h
Rats [2]; at 40 mg/kg, 0.25–2.25 h
  Hippocampal kindling avg. seizure score by Racine (0–5): 5
Mice [3]; female mice
  Rotarod TD50: 40.11 (36.49–42.98) mg/kg
Mice [3]; mice
  Rotarod TD50: 54.99 (52.95–56.94) mg/kg
Rats [4]; ip, […]
  SCMET ED50: > 50 mg/kg
Rats [4]; po
  SCMET ED50: > 240 mg/kg
[5]
  Test Result (neuroprotection): No Neuroprotection

## CCC(CO)NCCOc1c(C)cccc1Cl (stereo not drawn) [KM-408, R,S-2-((2-(2-chloro-6-methylphenoxy)ethyl)amino)butan-1-ol hydrochloride]
Sigma (non-selective)
  IC50: 89 nM
  Ki: 72 nM
Sigma (non-selective); 0.001 μM
  % of control specific binding: 104.0%
Sigma (non-selective); 0.01 μM
  % of control specific binding: 97.1%
Sigma (non-selective); 0.1 μM
  % of control specific binding: 50.0%
Sigma (non-selective); 1 μM
  % of control specific binding: 13.1%
Sigma (non-selective); 10 μM
  % of control specific binding: 1.4%
Mice [1]; 32 mA, ip
  6 Hz TPE: 0.25 h
Mice [1]; 44 mA, ip
  6 Hz TPE: 0.25 h
Mice [1]; 44 mA, po
  6 Hz TPE: 0.25 h
Mice [1]; ip, 32 mA
  ED50: 29.4 mg/kg
Mice [1]; ip, 44 mA
  ED50: 35.1 mg/kg
Mice [1]; po, 44 mA
  ED50: 281 mg/kg
Rats [2]; […]
  Hippocampal kindling: death at: 200 mg/kg
[6]
  TD50: 64.3 mg/kg
Rats [4]; Rattus norvegicus, ip, […], read-out: SCMET ED50
  ED50: > 54 mg/kg
[5]; listed as 367061
  Test Result (neuroprotection): No neurop rotection observed
